Measured values as given in patent US20090076029A1 (Palatin Technologies, Inc., priority 2007, published 2009).
Where “and” joins values, the source holds several entries; their conditions need not be identical. Equal values may be shown once. Read-outs that look alike come from different tables or passages of the source.

Tests used:
[1] = system: T1, hMC5-R; experiment: cAMP functional assay, HEK-293 cells expressing hMC5-R; type: cell-based, human; details: cAMP assay at 1 μM
T1 construct: expressed in transfected cells; host or cells: HEK-293

[2] = system: T2, hMC4-R; experiment: cAMP functional assay in HEK-293 cells expressing MC4-R (agonist, neutral antagonist/Schild); type: cell-based, human; details: for intrinsic activity at MC4-R: NDP-α-MSH maximal stimulation = 1.0; for pA2 value at MC4-R: Schild plot vs NDP-α-MSH; for functional status at MC4-R: mostly at 1 μM
T2 construct: expressed in transfected cells; host or cells: HEK-293
How it was run: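 Cells in EBSS/HEPES pH 7.5 with 0.3 mM IBMX, exposed to compound (0.05-5000 nM, 1% DMSO) for 1 h at 37 °C; cAMP by EIA, EC50 by nonlinear regression. Antagonism: 30 min compound pre-incubation, then 1 nM NDP-α-MSH for 1 h; Schild analysis over 0.005-5000 nM agonist gives pA2.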

[3] = system: T3, MC4-R; type: cell-based
T3 construct: expressed in transfected cells; host or cells: HEK-293
Description: Assay for Antagonists of AgRP in HEK-293/MC4-R Cells stimulated with Forskolin. […] AgRP causes a decrease in the basal adenylyl cyclase activity only to the extent of 40-50%. Even though the AgRP-induced decrease in cAMP levels is substantial, conventional assay methods, such as those described above, have limited sensitivity, precluding detecting small changes that are reversed by certain antagonists to AgRP. This limitation was circumvented by the use of a non-specific activator, forskolin, which directly activates adenylyl cyclase activity and raises cyclic AMP levels. Forskolin, a cell permeable diterpenoid initially isolated from Coleus forskohlii, has the ability to stimulate adenylyl cyclase activity and increase intracellular cAMP, thus activating cAMP-dependent protein kinase and other cAMP receptor proteins. See, e.g., Seamon, K. B., Daly, J. W. Forskolin: a unique diterpene activator of cyclic AMP-generating system. J. Cyclic Nucleotide Res. 7(4):201-24, 1981; Fradkin, J. E., Cook, G. H., Kilhoffer, M. C., Wolff, J. Forskolin stimulation of thyroid adenylate cyclase and cyclic 3′,5′-adenosine monophosphate accumulation. Endocrinology 111 (3):849-56, 1982; Barber, R., Goka, T. J. Adenylate cyclase activity as a function of forskolin concentration. J. Cyclic Nucleotide Protein Phosphor. Res. 10(1):23-9, 1985; and Laurenza, A., Sutkowski, E. M., Seamon, K. B. Forskolin: a specific stimulator of adenylyl cyclase or a diterpene with multiple sites of action? Trends Pharmacol. Sci. 10(11):442-7, 1989. […] The EC50 value was about 5 μM. AgRP inhibited the forskolin-induced response by 65% at a concentration of 10 nM. The difference in forskolin stimulated response and the inhibition due to AgRP in the cAMP levels was exploited to screen compounds for their ability to antagonize AgRP inhibition and […] levels of cAMP accumulation.
Experimental details for assays included incubating cells with the test compound in the presence of the inverse agonist AgRP with the extent of reversal of the AgRP effect measured by following the increase in the levels of intracellular cAMP. HEK-293 cells expressing MCR-4 were suspended in 10 mM HEPES/Earle's Balanced Salt Solution at pH 7.5 with the phosphodiesterase inhibitor IBMX, and pre-incubated for 30 minutes with the compounds (0.5-5000 nM). The cells were then treated with AgRP (10 nM) and incubated further for 30 minutes. The cells were then treated with forskolin (10 μM) and incubated for an additional 60 minutes. Cells were lysed and cAMP was measured by EIA kit (Amersham).

| Structure (SMILES) | functional status at MC5-R [1] | functional status (pAg, Ag, Antag, Inactive) ([2]; MC4-R, Table 1) | intrinsic activity at MC4-R [2] | pA2 value at MC4-R [2] | functional status at MC4-R ([2]; cAMP assay) | effect on AgRP inhibition of forskolin-stimulated cAMP levels [3] | EC50 ([2]; MC4-R, Table 1, read-out: EC50) | EC50 ([2]; cAMP assay, read-out: EC50 (nM) at MC4-R) |
| --- | --- | --- | --- | --- | --- | --- | --- | --- |
| CC(C)C[C@@H]1CN(C(=O)[C@H](N)Cc2ccc(Cl)cc2Cl)[C@@H](CCCNC(=N)N)CN1CCc1ccc2ccccc2c1 [Example 4, N-{3-[1-[2(R)-Amino-3-(2,4-dichloro-phenyl)-propionyl]-5(R)-isobutyl-4-(2-naphthalen-2-yl-ethyl)-piperazin-2(S)-yl]-propyl}-guanidine] | partial agonist (intrinsic activity between 0.1 (10%) and 0.7 (70%) is classified as a partial agonist) | Antag (“Antag” means antagonist) | no intrinsic activity | 7.7 | antagonist |  |  |  |
| CC(=O)N[C@H](Cc1ccc(C)cc1C)C(=O)N1C[C@@H](C)N(CCc2ccc3ccccc3c2)C[C@@H]1CCCNC(=N)N [Example 26, N-{1(R)-(2,4-Dimethyl-benzyl)-2-[2(S)-(3-guanidino-propyl)-5(R)-methyl-4-(2-naphthalen-2-yl-ethyl)-piperazin-1-yl]-2-oxo-ethyl}-acetamide] |  | Antag (“Antag” means antagonist) | no intrinsic activity | 8.3 | antagonist | reversal of AgRP inhibition |  |  |
| Cc1ccc(C[C@@H](N)C(=O)N2C[C@@H](C)N(CCc3ccc4ccccc4c3)C[C@@H]2CCCNC(=N)N)c(C)c1 [Example 28, N-{3-[1-[2(R)-Amino-3-(2,4-dimethyl-phenyl)-propionyl]-5(R)-methyl-4-(2-naphthalen-2-yl-ethyl)-piperazin-2(S)-yl]-propyl}-guanidine] |  | pAg (“pAg” means partial agonist) | 0.16 and 0.2 |  |  | reversal of AgRP inhibition | 390 nM | 321 nM |
